Reference: patent US10011813B2, “Methane oxidation methods and compositions” (California Institute of Technology, priority 2015, dated 2018)
In brackets after ≈: the same amount, converted by molar mass. Several values for one entry are separate records, joined by “and”; a condition that tells them apart may be missing. Equal entries are not always repeated.

Columns and labels:
[1] = system: methane seep sediment (ANME archaea); experiment: AOM rate measurement via 13C-methane (newly formed DIC) in methane seep sediment incubations; assay type: cell-based, ANME-2a and ANME-2c; details: for Rate relative to AOM with sulfate: 10 mM; for DIC formed: after 21-day incubation
Description: General description of methane oxidation measurements via ^13C-methane. Methane oxidation was quantified by determining the production of inorganic carbon (“CO2”). Accurate quantification of the concentration of inorganic carbon formed from methane oxidation is challenging due to 4 main reasons:
A defined amount of added DIC in artificial, buffered seawater was used with a low calcium concentration to prevent carbonate precipitation (see medium composition). As ^13CH4 was the only ^13C-enriched carbon source added, the newly formed ^13C-DIC must be derived from methane. For low methane oxidation rates (less than ca. 5% relative to sulfate as the oxidant or electron acceptor), however, enzyme-catalyzed isotope exchange between methane and DIC, needs to be taken into account, because it contributes to ^13C enrichment of the DIC without net methane oxidation, resulting in an overestimation of net methane oxidation. […] Details of both methods, the ^13CH4 experiments and the standard addition are described herein.
Incubation conditions for AOM rate measurement. Each incubation vial was set up with 1.0 cm^3 wet sediment (wet sediment=volume of sediment after allowing the sediment slurry settle for 48 h) in total slurry volume of […] as follows: Sterile serum vials were closed with butyl rubber stoppers (volume=12.9 ml after closing) and flushed with methane. 1.0 mL ^13CH4 (99% ^13C, Cambridge Isotope Laboratories, containing 0.05 vol % ^13CO2 as an impurity) was introduced anaerobically. 2.0 mL of artificial, anaerobic seawater containing 2.5× the target concentration of the corresponding electron acceptor was injected into the serum vial cooled on ice. For AQDS and 1,5-AQDS, this was a suspension corresponding to 25 mM (see TABLE 3).
The 1 L pyrex bottle with the sediment in the sulfate-free medium (1 part wet sediment in 3 parts of slurry volume) was vigorously shaken each time and 3.0 mL of slurry immediately removed and injected into the individual serum bottles. Each stoppered serum vial was supplemented with unlabeled methane (0.250 MPa overpressure: pressure gauge SSI Technologies, Inc., Media Gauge™) shaken and stored inverted at 4° C. (final headspace: 0.35 MPa methane, with ca. 4% ^13CH4). The exact fractional abundance of ^13C in the methane was quantified via ^1H-NMR spectroscopy for individual incubations.
AOM rate measurements (quantification of newly formed DIC based on ^13CH4). For ^13C-DIC analysis, 0.25 mL of the medium above the settled sediment in the microcosm was sampled with a disposable needle and syringe at each time point (same intervals for all experiments) and centrifuged (16000 rcf, 5 min). The supernatant was transferred into 0.6 mL eppendorf tubes, flash frozen in N2 (l), and stored at −20° C. until measurement. 150 μL of the thawed supernatant was then added to He-flushed vials containing 100 μL H3PO4 (85%). The resulting CO2 was analyzed for the isotopic enrichment (^13F(tn)) on a GC-IR-MS GasBench II (Thermo Scientific). The amount of DIC newly formed (Δ[DIC](tn), see FIG. 6B) was calculated from the measured ^13F (fractional abundance of ^13C), neglecting isotope effects on AOM according to Equation (1): Δ[DIC](tn)=[DIC](t0)*(^13F(tn)−^13F(t0))/(^13F(CH4)−^13F(tn)) (EQ. 1)

[2] = system: methane seep sediment (ANME archaea); experiment: Quantification of reduced AQDS by iodometry in AOM incubations; assay type: cell-based, ANME-2a and ANME-2c; details: after 21-day incubation
Method: (§1) Quantification of reduced AQDS by iodometry. Reduced AQDS (2,6-AQH2DS) was quantified via iodimetric titration in the anaerobic chamber. A standard solution of ca. 20 mM KI3 was prepared as follows: iodine (254 mg, 2.0 mmol) and potassium iodide (1.66 g, 10 mmol) were dissolved in 100 mL DI water. After 2 days, the clear, dark solution was N2-sparged and brought into the anaerobic chamber. The exact concentration of the KI3 standard solution was quantified to be 19.5 mM via duplicate titration with sodium thiosulfate (exactly 101.5 mM, N2-sparged). Procedure for the quantification of reduced AQDS in the incubations: 1000 μL anaerobic assay solution centrifuged in the anaerobic chamber+200 μL anaerobic HEPES (1.0 M, pH=7.5)+KI3 standard solution as needed until color minimum, added in steps of 100 μL first, then in steps of 10 μL when closer to the equivalence point.

[3] = Quantification of AQDS solubility in the incubation medium; assay type: physicochemical
Method: Quantification of AQDS solubility in the incubation medium. Different regioisomers of AQDS (1,5-AQDS, 2,6-AQDS and 2,7-AQDS) were separately added to the modified artificial seawater described above, to a targeted final concentration of 25 mM. The suspensions were ultra-sonicated at room temperature to dissolve as much of the AQDS as possible. The tubes were kept at 4° C. or at 22.5° C. overnight. The tubes were centrifuged at 4° C. or 22.5° C. (16000 rcf, 30 min). The supernatant (300 μL) was mixed with 300 μL acetate (10.0 mM) as the internal standard and 100 μL deuterated water (99.9% D, Cambridge Isotope Laboratories) was added. The concentration of AQDS was obtained from integration of the ^1H-NMR spectra by comparison relative to the acetate standard.

methane seep sediment = experiment: Control experiments without methane (sediment with AQDS under nitrogen); assay type: cell-based; details: AQDS 10 mM, after 3 weeks
Method: as §1
Control experiments without methane. […] To confirm that the methanotrophic microorganisms in the sediment had not been killed during the nitrogen+AQDS incubation, methane was later injected into these incubation bottles after 3 weeks.

[4] = system: methane seep sediment (ANME archaea); experiment: AOM rate measurement via 13C-methane (newly formed DIC) in methane seep sediment incubations; assay type: cell-based, ANME-2a and ANME-2c; details: 22.5° C.

O=C1c2ccc(S(=O)(=O)O)cc2C(=O)c2ccc(S(=O)(=O)O)cc21 [AQDS, 9,10-anthraquinone-2,6-disulfonate]
Rate relative to AOM with sulfate ([1]; no MoO4^2−): 74% | Rate relative to AOM with sulfate ([1]; with 25 mM MoO4^2−): 83% | DIC formed from 13C-methane per vial ([1]; 50 mmol AQDS (10 mM), no sulfate, 21-day incubation at 4° C.): approximately 12.5 mmol | DIC formed ([1]; AQDS 10 mM + MoO4^2− 25 mM): 2.59 mM and 2.82 mM | DIC formed ([1]; AQDS 10 mM, 4° C.): 2.39 mM and 2.64 mM | initial rates of AOM compared with sulfate ([1]; first 6 days, 4° C.): equivalent | AQH2DS (final concentration of reduced AQDS) ([2]; AQDS 10 mM + MoO4^2− 25 mM): 9.2 mM and 9.8 mM | AQH2DS (final concentration of reduced AQDS) ([2]; AQDS 10 mM): 8.6 mM and 9.6 mM | Solubility in the incubation medium ([3]; 4° C.): 900 µM (≈ 332 µg/mL) | Solubility in the incubation medium ([3]; 22.5° C.): 1900 µM (≈ 700 µg/mL) | reduced AQDS generated without methane (methane seep sediment): less than 1 mM | AOM rates compared with sulfate [4]: exceeded
